Test results published in paper PMC3914206.

Key:
panel of 442 kinases [1] = target: T1, panel of 442 kinases (Homo sapiens, UniProt Q15835); assay type: binding; details: Compound Concentration 10 µM
T1 construct: purchased KINOMEscan
T1 sequence (Q15835 1-563): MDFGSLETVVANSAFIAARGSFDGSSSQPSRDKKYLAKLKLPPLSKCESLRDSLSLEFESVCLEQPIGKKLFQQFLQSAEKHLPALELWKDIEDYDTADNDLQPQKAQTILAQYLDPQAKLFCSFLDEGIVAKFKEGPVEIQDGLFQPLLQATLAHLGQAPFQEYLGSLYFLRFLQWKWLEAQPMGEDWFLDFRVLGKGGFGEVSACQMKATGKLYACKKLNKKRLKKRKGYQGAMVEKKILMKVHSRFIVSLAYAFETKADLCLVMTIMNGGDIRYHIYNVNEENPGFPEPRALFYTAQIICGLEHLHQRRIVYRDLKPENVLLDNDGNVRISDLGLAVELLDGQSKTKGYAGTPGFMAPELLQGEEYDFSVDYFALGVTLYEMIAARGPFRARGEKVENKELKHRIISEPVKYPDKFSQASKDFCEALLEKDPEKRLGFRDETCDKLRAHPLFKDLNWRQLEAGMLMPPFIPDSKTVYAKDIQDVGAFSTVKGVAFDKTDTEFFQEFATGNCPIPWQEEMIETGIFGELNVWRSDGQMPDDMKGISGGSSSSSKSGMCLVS
From the text: (§1) We assessed the selectivity of members of this scaffold using the KINOMEscan methodology across a near comprehensive panel of 442 kinases [[18,27]].

panel of 442 kinases [2] = target: T2, panel of 442 kinases (Homo sapiens, UniProt Q7L7X3); assay type: binding; details: kinase TAOK1; compound concentration 10 µM
T2 construct: purchased KINOMEscan
T2 sequence (Q7L7X3 1-1001): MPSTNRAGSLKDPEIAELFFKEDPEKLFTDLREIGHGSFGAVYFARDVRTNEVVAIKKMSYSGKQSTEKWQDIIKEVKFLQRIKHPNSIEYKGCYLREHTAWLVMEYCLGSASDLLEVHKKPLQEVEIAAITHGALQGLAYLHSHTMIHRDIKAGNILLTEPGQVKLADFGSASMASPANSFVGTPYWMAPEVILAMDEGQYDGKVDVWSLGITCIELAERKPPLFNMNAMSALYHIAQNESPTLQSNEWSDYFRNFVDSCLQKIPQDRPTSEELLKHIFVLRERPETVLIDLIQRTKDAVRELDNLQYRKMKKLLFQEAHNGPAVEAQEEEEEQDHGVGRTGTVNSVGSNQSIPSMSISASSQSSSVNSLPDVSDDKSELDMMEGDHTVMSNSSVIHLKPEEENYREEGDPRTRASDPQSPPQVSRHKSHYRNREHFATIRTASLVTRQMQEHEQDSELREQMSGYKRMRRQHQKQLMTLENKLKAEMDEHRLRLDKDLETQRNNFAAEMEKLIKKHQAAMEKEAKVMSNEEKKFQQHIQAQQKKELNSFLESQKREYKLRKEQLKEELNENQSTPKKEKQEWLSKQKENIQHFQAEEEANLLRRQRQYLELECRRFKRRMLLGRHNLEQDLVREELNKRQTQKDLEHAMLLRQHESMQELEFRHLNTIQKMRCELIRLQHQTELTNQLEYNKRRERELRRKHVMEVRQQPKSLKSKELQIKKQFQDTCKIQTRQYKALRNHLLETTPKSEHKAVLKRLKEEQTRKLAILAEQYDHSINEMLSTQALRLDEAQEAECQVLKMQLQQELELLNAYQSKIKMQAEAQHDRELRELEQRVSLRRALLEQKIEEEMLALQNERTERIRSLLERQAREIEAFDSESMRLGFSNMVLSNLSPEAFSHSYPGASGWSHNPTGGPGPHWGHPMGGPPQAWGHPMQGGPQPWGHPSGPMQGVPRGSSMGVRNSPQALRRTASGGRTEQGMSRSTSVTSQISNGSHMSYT
From the text: as §1

SMILES | KINOMEscan: GRK1 (panel of 442 kinases [1]) | % Ctrl, TAOK1 (panel of 442 kinases [2]) [% Ctrl]
COc1cc(C(=O)N2CCC(N3CCN(C)CC3)CC2)ccc1Nc1ncc2c(n1)N(C)c1ccccc1C(=O)N2C [15 (LRRK2-IN-1)] | 91 | 28
COc1cc(C(=O)N2CCC(N3CCN(C)CC3)CC2)ccc1Nc1ncc2c(n1)N(C1CCCC1)c1ccccc1C(=O)N2C [Compound 25, 11-cyclopentyl-2-((2-methoxy-4-(4-(4-methylpiperazin-1-yl)piperidine-1-carbonyl)phenyl)amino)-5-methyl-5H-benzo[e]pyrimido[5,4-b][1,4]diazepin-6(11H)-one] | 85 | 51
CCOc1cc(C(=O)N2CCC(N3CCN(C)CC3)CC2)ccc1Nc1ncc2c(n1)N(C1CCCC1)c1ccccc1C(=O)N2C [Compound 26] | 100 | 79
